Assays:
[1] = tested on: Staphylococcus aureus; test: Antibacterial activity against methicillin-sensitive Staphylococcus aureus ATCC 29213 after 18 hrs by agar dilution method; type: functional; conditions: ATCC 29213, 18 h
[2] = tested on: Staphylococcus aureus; test: Antibacterial activity against methicillin-resistant Staphylococcus aureus 13-18 clinical isolate after 18 hrs by agar dilution method; type: functional; conditions: 13-18, 18 h
[3] = tested on: Staphylococcus aureus; test: Antibacterial activity against methicillin-resistant Staphylococcus aureus ATCC BAA-1708 after 18 hrs by agar dilution method; type: functional; conditions: ATCC BAA-1708, 18 h
[4] = tested on: Staphylococcus aureus; test: Antibacterial activity against methicillin-resistant Staphylococcus aureus 16-30 clinical isolate after 18 hrs by agar dilution method; type: functional; conditions: 16-30, 18 h
[5] = tested on: Staphylococcus aureus; test: Antibacterial activity against methicillin-resistant Staphylococcus aureus 16-34 clinical isolate after 18 hrs by agar dilution method; type: functional; conditions: 16-34, 18 h
[6] = tested on: Staphylococcus aureus; test: Antibacterial activity against methicillin-resistant Staphylococcus aureus 13-23 clinical isolate after 18 hrs by agar dilution method; type: functional; conditions: 13-23, 18 h
[7] = tested on: Staphylococcus aureus; test: Antibacterial activity against methicillin-resistant Staphylococcus aureus ATCC 43300 after 18 hrs by agar dilution method; type: functional; conditions: ATCC 43300, 18 h
[8] = tested on: Staphylococcus aureus; test: Antibacterial activity against methicillin-resistant Staphylococcus aureus ATCC BAA-976 after 18 hrs by agar dilution method; type: functional; conditions: ATCC BAA-976, 18 h
[9] = tested on: Staphylococcus aureus; test: Antibacterial activity against methicillin-sensitive Staphylococcus aureus 16-1 clinical isolate after 18 hrs by agar dilution method; type: functional; conditions: 16-1, 18 h
[10] = tested on: Staphylococcus aureus; test: Antibacterial activity against methicillin-resistant Staphylococcus aureus ATCC 33591 after 18 hrs by agar dilution method; type: functional; conditions: ATCC 33591, 18 h
[11] = Stability of the compound in Sprague-Dawley rat whole blood assessed as parent compound remaining after 1 hr by LC-MS/MS analysis; type: ADME, tissue-based; conditions: read-out: Stability
[12] = Toxicity in iv dosed Kunming mouse administered as single dose measured for 7 days; type: organism-based; conditions: in vivo
[13] = Stability of the compound in Sprague-Dawley rat whole blood assessed as parent compound remaining after 24 hrs by LC-MS/MS analysis; type: ADME, tissue-based; conditions: read-out: Stability

SMILES | MIC [1] [µg/mL] | MIC [2] [µg/mL] | MIC [3] [µg/mL] | MIC [4] [µg/mL] | MIC [5] [µg/mL] | MIC [6] [µg/mL] | MIC [7] [µg/mL] | MIC [8] [µg/mL] | MIC [9] [µg/mL] | MIC [10] [µg/mL] | remaining at 1 h [11] [%] | LD50 at 168 h [12] [mg/kg] | remaining at 24 h [13] [%]
COc1ccc2c(c[n+]3c4c2cc(Cc2ccc(SC(F)(F)F)cc2)c2c5c(cc(c24)CC3)OCO5)c1OC.[Br-] | > 64 | > 64 | > 64 | > 64 | > 64 | > 64 | > 64 | > 64 | > 64 | > 64 |  |  | 
COc1ccc2c(c[n+]3c4c2cc(Cc2ccc(OC(F)(F)F)cc2)c2c5c(cc(c24)CC3)OCO5)c1OC.[Br-] | 32 | 32 | 64 | 64 | 64 | 32 | 64 | 64 | 64 | 32 |  |  | 
COc1ccc2c(c[n+]3c4c2cc(Cc2ccc(F)cc2)c2c5c(cc(c24)CC3)OCO5)c1OC.[Br-] | 4 | 4 | 8 | 4 | 4 | 2 | 4 | 4 | 4 | 4 |  |  | 
COc1ccc2c(c[n+]3c4c2cc(Cc2ccccc2[N+](=O)[O-])c2c5c(cc(c24)CC3)OCO5)c1OC.[Br-] | 8 | 8 | 64 | 8 | 8 | 16 | 32 | 8 | 8 | 16 |  |  | 
COc1ccc2c(c[n+]3c4c2cc(Cc2cc(C)cc(C)c2)c2c5c(cc(c24)CC3)OCO5)c1OC.[Br-] | 4 | 4 | 8 | 4 | 4 | 4 | 8 | 2 | 4 | 4 |  |  | 
COc1ccc2c(c[n+]3c4c2cc(Cc2cccnc2)c2c5c(cc(c24)CC3)OCO5)c1OC.[Br-] | 16 | 32 | 32 | 32 | 32 | 32 | > 64 | 16 | 16 | 32 |  |  | 
COc1ccc2c(c[n+]3c4c2cc(Cc2c(F)cccc2F)c2c5c(cc(c24)CC3)OCO5)c1OC.[Br-] | 4 | 4 | 8 | 4 | 2 | 4 | 8 | 2 | 4 | 8 |  |  | 
COc1ccc2c(c[n+]3c4c2cc(Cc2cccc(C)c2)c2c5c(cc(c24)CC3)OCO5)c1OC.[Br-] | 2 | 4 | 4 | 2 | 2 | 4 | 4 | 2 | 2 | 4 |  |  | 
COc1ccc2c(c[n+]3c4c2cc(C(C)c2ccccc2)c2c5c(cc(c24)CC3)OCO5)c1OC.[Br-] (stereo not drawn) | 2 | 2 | 4 | 2 | 2 | 2 | 4 | 1 | 2 | 2 | 91.2 | 41.2 | 77.3
COc1ccc2c(c[n+]3c4c2cc(Cc2ccc(Br)cc2)c2c5c(cc(c24)CC3)OCO5)c1OC.[Br-] | 16 | 16 | 64 | 16 | 16 | 16 | 32 | 16 | 16 | 16 |  |  | 
COc1ccc2c(c[n+]3c4c2cc(Cc2ccc(F)cc2F)c2c5c(cc(c24)CC3)OCO5)c1OC.[Br-] | 4 | 4 | 4 | 2 | 2 | 4 | 8 | 4 | 2 | 4 |  |  | 
COc1ccc2c(Cc3ccccc3)c3[n+](cc2c1OC)CCc1cc2c(cc1-3)OCO2.[Br-] | 32 | 32 | 32 | 64 | 64 | 32 | 64 | 32 | 16 | 64 |  |  | 
C[C@H]1COc2c(N3CCN(C)CC3)c(F)cc3c(=O)c(C(=O)O)cn1c23.C[C@H]1COc2c(N3CCN(C)CC3)c(F)cc3c(=O)c(C(=O)O)cn1c23.O [LEVOFLOXACIN] | 0.125 | 32 | 8 | 32 | 32 | 32 | 0.125 | 0.125 | 0.125 | 0.125 |  |  | 
